Test: molar heat capacity at constant pressure
Settings: 101.33 kPa, Metastable crystal

O=P([O-])([O-])[O-].[Tb+3] [terbium orthophosphate]
Settings | molar heat capacity at constant pressure [J/K/mol]
291.41 K, Vacuum adiabatic calorimetry | 108
294.82 K, Vacuum adiabatic calorimetry | 108.6
298.47 K, Vacuum adiabatic calorimetry | 109.3
300 K, Vacuum adiabatic calorimetry | 109.8
302.47 K, Vacuum adiabatic calorimetry | 110
307.42 K, Vacuum adiabatic calorimetry | 110.9
310 K, Vacuum adiabatic calorimetry | 111.5
313.46 K, Vacuum adiabatic calorimetry | 112.2
320 K, Vacuum adiabatic calorimetry | 113.1
320.4 K, Vacuum adiabatic calorimetry | 113.3
325 K, Vacuum adiabatic calorimetry | 113.9
327.27 K, Vacuum adiabatic calorimetry | 114.3
334.07 K, Vacuum adiabatic calorimetry | 115.4
340 K, Small sample (50 mg) DSC | 116.3
340.79 K, Vacuum adiabatic calorimetry | 116.6
347.44 K, Vacuum adiabatic calorimetry | 117.5
360 K, Small sample (50 mg) DSC | 119
380 K, Small sample (50 mg) DSC | 121.5
400 K, Small sample (50 mg) DSC | 123.7
420 K, Small sample (50 mg) DSC | 125.6
433.9 K, Small sample (50 mg) DSC | 128.2
438.9 K, Small sample (50 mg) DSC | 128.4
440 K, Small sample (50 mg) DSC | 127.4
443.9 K, Small sample (50 mg) DSC | 128.3
448.9 K, Small sample (50 mg) DSC | 128.3
453.9 K, Small sample (50 mg) DSC | 128.3
458.9 K, Small sample (50 mg) DSC | 128.5
460 K, Small sample (50 mg) DSC | 129
463.9 K, Small sample (50 mg) DSC | 128.6
468.9 K, Small sample (50 mg) DSC | 129
473.9 K, Small sample (50 mg) DSC | 129.1
478.9 K, Small sample (50 mg) DSC | 129.3
480 K, Small sample (50 mg) DSC | 130.4
483.9 K, Small sample (50 mg) DSC | 129.7
488.9 K, Small sample (50 mg) DSC | 130.2
493.9 K, Small sample (50 mg) DSC | 130.7
498.9 K, Small sample (50 mg) DSC | 131.4
500 K, Small sample (50 mg) DSC | 131.7
503.9 K, Small sample (50 mg) DSC | 131.7
508.9 K, Small sample (50 mg) DSC | 132.1
513.9 K, Small sample (50 mg) DSC | 132.7
518.9 K, Small sample (50 mg) DSC | 132.9
520 K, Small sample (50 mg) DSC | 132.9
523.9 K, Small sample (50 mg) DSC | 133.1
528.9 K, Small sample (50 mg) DSC | 133.7
533.9 K, Small sample (50 mg) DSC | 134.6
538.9 K, Small sample (50 mg) DSC | 135.3
540 K, Small sample (50 mg) DSC | 134
543.9 K, Small sample (50 mg) DSC | 135.7
548.9 K, Small sample (50 mg) DSC | 136.1
553.9 K, Small sample (50 mg) DSC | 136.5
558.9 K, Small sample (50 mg) DSC | 136.9
560 K, Small sample (50 mg) DSC | 135
563.9 K, Small sample (50 mg) DSC | 137.2
568.9 K, Small sample (50 mg) DSC | 137.5
573.9 K, Small sample (50 mg) DSC | 138
578.9 K, Small sample (50 mg) DSC | 138.3
580 K, Small sample (50 mg) DSC | 135.8
583.9 K, Small sample (50 mg) DSC | 138.2
588.9 K, Small sample (50 mg) DSC | 138.1
593.9 K, Small sample (50 mg) DSC | 138.4
598.9 K, Small sample (50 mg) DSC | 138.7
600 K, Small sample (50 mg) DSC | 136.7
603.9 K, Small sample (50 mg) DSC | 138.6
608.9 K, Small sample (50 mg) DSC | 138.7
613.9 K, Small sample (50 mg) DSC | 138.4
618.9 K, Small sample (50 mg) DSC | 138.5
620 K, Small sample (50 mg) DSC | 137.4
623.9 K, Small sample (50 mg) DSC | 138.6
628.9 K, Small sample (50 mg) DSC | 138.4
633.9 K, Small sample (50 mg) DSC | 136.7
638.9 K, Small sample (50 mg) DSC | 135.8
640 K, Small sample (50 mg) DSC | 138.1
643.9 K, Small sample (50 mg) DSC | 135.7
648.9 K, Small sample (50 mg) DSC | 135.9
653.9 K, Small sample (50 mg) DSC | 136.3
658.9 K, Small sample (50 mg) DSC | 136.4
660 K, Small sample (50 mg) DSC | 138.7
663.9 K, Small sample (50 mg) DSC | 136.8
668.9 K, Small sample (50 mg) DSC | 136.7
673.9 K, Small sample (50 mg) DSC | 136.7
678.9 K, Small sample (50 mg) DSC | 136.8
680 K, Small sample (50 mg) DSC | 139.3
683.9 K, Small sample (50 mg) DSC | 136.8
688.9 K, Small sample (50 mg) DSC | 136.9
693.9 K, Small sample (50 mg) DSC | 137.1
698.9 K, Small sample (50 mg) DSC | 137.5
700 K, Small sample (50 mg) DSC | 139.9
703.9 K, Small sample (50 mg) DSC | 138
708.9 K, Small sample (50 mg) DSC | 138.4
713.9 K, Small sample (50 mg) DSC | 138.9
718.9 K, Small sample (50 mg) DSC | 139.3
720 K, Small sample (50 mg) DSC | 140.4
723.9 K, Small sample (50 mg) DSC | 139.1
728.9 K, Small sample (50 mg) DSC | 139.3
733.9 K, Small sample (50 mg) DSC | 139.2
738.9 K, Small sample (50 mg) DSC | 139.5
740 K, Small sample (50 mg) DSC | 140.8
743.9 K, Small sample (50 mg) DSC | 139.8
748.9 K, Small sample (50 mg) DSC | 140.3
753.9 K, Small sample (50 mg) DSC | 140.6
758.9 K, Small sample (50 mg) DSC | 141.1
760 K, Small sample (50 mg) DSC | 141.2
763.9 K, Small sample (50 mg) DSC | 141.3
768.9 K, Small sample (50 mg) DSC | 141.7
773.9 K, Small sample (50 mg) DSC | 141.7
778.9 K, Small sample (50 mg) DSC | 141.7
780 K, Small sample (50 mg) DSC | 141.6
783.9 K, Small sample (50 mg) DSC | 141.5
788.9 K, Small sample (50 mg) DSC | 141.5
793.9 K, Small sample (50 mg) DSC | 141.8
798.9 K, Small sample (50 mg) DSC | 142.4
800 K, Small sample (50 mg) DSC | 142
803.9 K, Small sample (50 mg) DSC | 142.5
808.9 K, Small sample (50 mg) DSC | 142.6
813.9 K, Small sample (50 mg) DSC | 142.7
818.9 K, Small sample (50 mg) DSC | 143.1
820 K, Small sample (50 mg) DSC | 142.4
823.9 K, Small sample (50 mg) DSC | 143
828.9 K, Small sample (50 mg) DSC | 142.9
833.9 K, Small sample (50 mg) DSC | 143.1
838.9 K, Small sample (50 mg) DSC | 142.9
840 K, Small sample (50 mg) DSC | 142.7
843.9 K, Small sample (50 mg) DSC | 143.2
848.9 K, Small sample (50 mg) DSC | 142.9
853.9 K, Small sample (50 mg) DSC | 142.8
858.9 K, Small sample (50 mg) DSC | 142.7
860 K, Small sample (50 mg) DSC | 143
863.9 K, Small sample (50 mg) DSC | 142.4
868.9 K, Small sample (50 mg) DSC | 142
873.9 K, Small sample (50 mg) DSC | 141.5
878.9 K, Small sample (50 mg) DSC | 141.9
880 K, Small sample (50 mg) DSC | 143.3
883.9 K, Small sample (50 mg) DSC | 141.8
888.9 K, Small sample (50 mg) DSC | 141.7
893.9 K, Small sample (50 mg) DSC | 141.6
898.9 K, Small sample (50 mg) DSC | 141.8
900 K, Small sample (50 mg) DSC | 143.6
903.9 K, Small sample (50 mg) DSC | 141.5
908.9 K, Small sample (50 mg) DSC | 141.4
913.9 K, Small sample (50 mg) DSC | 141.7
918.9 K, Small sample (50 mg) DSC | 141.8
920 K, Small sample (50 mg) DSC | 143.8
923.9 K, Small sample (50 mg) DSC | 142.1
928.9 K, Small sample (50 mg) DSC | 142.7
933.9 K, Small sample (50 mg) DSC | 143
938.9 K, Small sample (50 mg) DSC | 142.9
940 K, Small sample (50 mg) DSC | 144
943.9 K, Small sample (50 mg) DSC | 142.4
948.9 K, Small sample (50 mg) DSC | 142.6
953.9 K, Small sample (50 mg) DSC | 142.6
958.9 K, Small sample (50 mg) DSC | 143.1
960 K, Small sample (50 mg) DSC | 144.3
963.9 K, Small sample (50 mg) DSC | 142.7
968.9 K, Small sample (50 mg) DSC | 142.8
973.9 K, Small sample (50 mg) DSC | 142.8
978.9 K, Small sample (50 mg) DSC | 142.6
980 K, Small sample (50 mg) DSC | 144.5
983.9 K, Small sample (50 mg) DSC | 142.5
988.9 K, Small sample (50 mg) DSC | 142.5
993.9 K, Small sample (50 mg) DSC | 142.6
998.9 K, Small sample (50 mg) DSC | 142.9
1000 K, Small sample (50 mg) DSC | 144.7
1003.9 K, Small sample (50 mg) DSC | 143
1008.9 K, Small sample (50 mg) DSC | 143.3
1009 K, Small sample (50 mg) DSC | 144.8

— the NIST ThermoML archive (doi:10.1016/j.tca.2016.08.008)
